Measurements: patent US8614290B2, “Cancer imaging and treatment” (Technische Universitat Munchen, priority 2007, dated 2013)
Numbered stars: 1 amine (or outer) side, 2 acyl side, 3 side chain; on linkers, the order of the positions; unused ones are H or OH. Bridge positions count the residues as written; N and C are the ends. Square brackets hold non-standard residues; d marks the D form. Peptide text beside a SMILES is read from it. I, II: the chains in the order shown. * marks the point of attachment. C16 diacid = O=C(O)CCCCCCCCCCCCCCC(=O)*; Sebacoyl = O=C(CCCCCCCCC(=O)[*:2])[*:1]; 2Nal = N[C@@H](Cc1ccc2ccccc2c1)C(=O)O; Suberoyl = O=C(CCCCCCC(=O)[*:2])[*:1]; Adipoyl = O=C(CCCCC(=O)[*:2])[*:1]; Glutaryl = O=C(CCCC(=O)[*:2])[*:1]; dNMeOrn = CN[C@H](CCCN)C(=O)O; Suc = O=C(CCC(=O)[*:2])[*:1]

Biological target: human CXCR4 (Homo sapiens, UniProt P61073)
Test: Competitive receptor binding assay on Jurkat cells with 125I-CPCR4 as tracer
Parameters: Jurkat cells that endogenously express the CXCR4 receptor; endogenous in cells; host or cells: Jurkat cells
Conditions: Table 10, dimers and monomers; read-out: IC50
Experimental: For receptor binding assays cells were resuspended in PBS/0.2% BSA. A total of 200 μl of the suspension containing 400,000 Jurkat cells were incubated with 25 μl of the tracer solution (containing 3.1 kBq, approx. 0.1 nM) and 25 μl of the diluent or the competitor at different concentrations. […] After shaking for 2 h at room temperature, the incubation was terminated by centrifugation at 1300 rpm for 5 min. Cell pellets were washed once with cold PBS followed by a second centrifugation step. Cell bound radioactivity was determined by using a gamma counter. Experiments were repeated 2-3 times in triplicates. IC50 values of the compounds were calculated by nonlinear regression using GraphPad Prism (GraphPad Prism 4.0 Software, Inc., San Diego, Calif., USA). Each data point is the average of three determinations.

Chain of human CXCR4 (P61073 whole entry): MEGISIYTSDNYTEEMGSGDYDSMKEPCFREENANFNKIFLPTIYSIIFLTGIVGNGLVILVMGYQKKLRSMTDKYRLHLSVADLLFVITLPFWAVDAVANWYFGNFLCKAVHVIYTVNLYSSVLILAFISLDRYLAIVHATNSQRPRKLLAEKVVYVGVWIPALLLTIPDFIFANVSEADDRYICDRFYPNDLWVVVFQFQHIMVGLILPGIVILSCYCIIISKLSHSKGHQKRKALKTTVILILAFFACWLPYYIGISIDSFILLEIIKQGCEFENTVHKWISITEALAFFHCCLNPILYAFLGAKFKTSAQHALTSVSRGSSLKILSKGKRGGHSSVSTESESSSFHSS

Q: With `CN1C(=O)[C@@H](Cc2ccc(O)cc2)NC(=O)CNC(=O)[C@H](Cc2ccc3ccccc3c2)NC(=O)[C@H](CCCN=C(N)N)NC(=O)[C@H]1CCCNC(=O)CNC(=O)CC(=O)NCC(=O)NCCC[C@@H]1C(=O)N[C@@H](CCCN=C(N)N)C(=O)N[C@@H](Cc2ccc3ccccc3c2)C(=O)NCC(=O)N[C@H](Cc2ccc(O)cc2)C(=O)N1C` [NMe-D-Orn + Gly n = 1] as the compound, how does the IC50 read?
A: Its IC50 is 5.48 nM.

Q: How did the IC50 turn out when `CN1C(=O)[C@@H](Cc2ccc(O)cc2)NC(=O)CNC(=O)[C@H](Cc2ccc3ccccc3c2)NC(=O)[C@H](CCCNC(=N)N)NC(=O)[C@H]1CCCNC(=O)C[C@H](NC(=O)CCCCCNC(=O)CN1CCN(CC(=O)O)CCN(CC(=O)O)CCN(CC(=O)O)CC1)C(=O)NCCC[C@@H]1C(=O)N[C@@H](CCCNC(=N)N)C(=O)N[C@@H](Cc2ccc3ccccc3c2)C(=O)NCC(=O)N[C@H](Cc2ccc(O)cc2)C(=O)N1C` [NMe-D-Orn DOTAAhxAsp] was run?
A: Its IC50 is 92.1 nM.

Q: Which IC50 does the source give for `CN1C(=O)[C@@H](Cc2ccc(O)cc2)NC(=O)CNC(=O)[C@H](Cc2ccc3ccccc3c2)NC(=O)[C@H](CCCNC(=N)N)NC(=O)[C@H]1CCCNC(=O)C[C@H](NC(=O)CCCCCNC(=O)CN1CCN(CC(=O)O)CCN(CC(=O)O)CCN(CC(=O)O)CC1)C(=O)NCCC[C@@H]1C(=O)N[C@@H](CCCNC(=N)N)C(=O)N[C@@H](Cc2ccc3ccccc3c2)C(=O)NCC(=O)N[C@H](Cc2ccc(O)cc2)C(=O)N1C` [NMe-D-Orn InDOTAAhxAsp] here?
A: The IC50 was 37.9 nM.

Q: With `CN1C(=O)[C@@H](Cc2ccc(O)cc2)NC(=O)CNC(=O)[C@H](Cc2ccc3ccccc3c2)NC(=O)[C@H](CCCNC(=N)N)NC(=O)[C@H]1CCCNC(=O)CCC(=O)NCCC[C@@H]1C(=O)N[C@@H](CCCNC(=N)N)C(=O)N[C@@H](Cc2ccc3ccccc3c2)C(=O)NCC(=O)N[C@H](Cc2ccc(O)cc2)C(=O)N1C` [NMe-D-Orn n = 2] (I: cyclo([2Nal]G[dY][dNMeOrn]R) / II: cyclo([2Nal]G[dY][dNMeOrn]R); linker I:4-II:4 via Suc) as the compound, how does the IC50 read?
A: The IC50 was 6.61 nM.

Q: How did the IC50 turn out when `CN1C(=O)[C@@H](Cc2ccc(O)cc2)NC(=O)CNC(=O)[C@H](Cc2ccc3ccccc3c2)NC(=O)[C@H](CCCN=C(N)N)NC(=O)[C@H]1CCCNC(=O)CCCCC(=O)NCCC[C@@H]1C(=O)N[C@@H](CCCN=C(N)N)C(=O)N[C@@H](Cc2ccc3ccccc3c2)C(=O)NCC(=O)N[C@H](Cc2ccc(O)cc2)C(=O)N1C` [NMe-D-Orn n = 4] (I: cyclo([2Nal]G[dY][dNMeOrn]R) / II: cyclo([2Nal]G[dY][dNMeOrn]R); linker I:4-II:4 via Adipoyl) was run?
A: The IC50 was 3.65 nM.

Q: Which IC50 does the source give for `CN1C(=O)[C@@H](Cc2ccc(O)cc2)NC(=O)CNC(=O)[C@H](Cc2ccc3ccccc3c2)NC(=O)[C@H](CCCN=C(N)N)NC(=O)[C@H]1CCCNC(=O)CCCCCCCCC(=O)NCCC[C@@H]1C(=O)N[C@@H](CCCN=C(N)N)C(=O)N[C@@H](Cc2ccc3ccccc3c2)C(=O)NCC(=O)N[C@H](Cc2ccc(O)cc2)C(=O)N1C` [NMe-D-Orn n = 8] (I: cyclo([2Nal]G[dY][dNMeOrn]R) / II: cyclo([2Nal]G[dY][dNMeOrn]R); linker I:4-II:4 via Sebacoyl) here?
A: Its IC50 is 2.26 nM.

Q: For `CN1C(=O)[C@@H](Cc2ccc(O)cc2)NC(=O)CNC(=O)[C@H](Cc2ccc3ccccc3c2)NC(=O)[C@H](CCCNC(=N)N)NC(=O)[C@H]1CCCNC(=O)CCCCCCCCCCCCCCC(=O)NCCC[C@@H]1C(=O)N[C@@H](CCCNC(=N)N)C(=O)N[C@@H](Cc2ccc3ccccc3c2)C(=O)NCC(=O)N[C@H](Cc2ccc(O)cc2)C(=O)N1C` [NMe-D-Orn n = 14] (I: cyclo([2Nal]G[dY][dNMeOrn]R) / II: cyclo([2Nal]G[dY][dNMeOrn]R); linker I:4-II:4 via C16 diacid (inferred); ring closure inferred), which IC50 is on record?
A: The IC50 was 33.5 nM.

Same assay, conditions: read-out: IC50 (affinity)

Q: How did the IC50 turn out when `CN1C(=O)[C@@H](Cc2ccc(O)cc2)NC(=O)CNC(=O)[C@H](Cc2ccc3ccccc3c2)NC(=O)[C@H](CCCNC(=N)N)NC(=O)[C@H]1CCCNC(=O)CCCC(=O)NCCC[C@@H]1C(=O)N[C@@H](CCCNC(=N)N)C(=O)N[C@@H](Cc2ccc3ccccc3c2)C(=O)NCC(=O)N[C@H](Cc2ccc(O)cc2)C(=O)N1C` [NMe-D-Orn n = 3] (I: cyclo([2Nal]G[dY][dNMeOrn]R) / II: cyclo([2Nal]G[dY][dNMeOrn]R); linker I:4-II:4 via Glutaryl) was run?
A: The IC50 was 4.28 ± 2.3 nM.

Q: With `CN1C(=O)[C@@H](Cc2ccc(O)cc2)NC(=O)CNC(=O)[C@H](Cc2ccc3ccccc3c2)NC(=O)[C@H](CCCN=C(N)N)NC(=O)[C@H]1CCCNC(=O)CCCCC(=O)NCCC[C@@H]1C(=O)N[C@@H](CCCN=C(N)N)C(=O)N[C@@H](Cc2ccc3ccccc3c2)C(=O)NCC(=O)N[C@H](Cc2ccc(O)cc2)C(=O)N1C` [NMe-D-Orn n = 4] (I: cyclo([2Nal]G[dY][dNMeOrn]R) / II: cyclo([2Nal]G[dY][dNMeOrn]R); linker I:4-II:4 via Adipoyl) as the compound, how does the IC50 read?
A: Its IC50 is 4.42 nM.

Q: `CN1C(=O)[C@@H](Cc2ccc(O)cc2)NC(=O)CNC(=O)[C@H](Cc2ccc3ccccc3c2)NC(=O)[C@H](CCCNC(=N)N)NC(=O)[C@H]1CCCNC(=O)CCCCCCC(=O)NCCC[C@@H]1C(=O)N[C@@H](CCCNC(=N)N)C(=O)N[C@@H](Cc2ccc3ccccc3c2)C(=O)NCC(=O)N[C@H](Cc2ccc(O)cc2)C(=O)N1C` [NMe-D-Orn n = 6] (I: cyclo([2Nal]G[dY][dNMeOrn]R) / II: cyclo([2Nal]G[dY][dNMeOrn]R); linker I:4-II:4 via Suberoyl) was tested. Which IC50 did it give?
A: The IC50 was 2.51 ± 0.7 nM.

Q: With `CN1C(=O)[C@@H](Cc2ccc(O)cc2)NC(=O)CNC(=O)[C@H](Cc2ccc3ccccc3c2)NC(=O)[C@H](CCCN=C(N)N)NC(=O)[C@H]1CCCNC(=O)CCCCCCCCC(=O)NCCC[C@@H]1C(=O)N[C@@H](CCCN=C(N)N)C(=O)N[C@@H](Cc2ccc3ccccc3c2)C(=O)NCC(=O)N[C@H](Cc2ccc(O)cc2)C(=O)N1C` [NMe-D-Orn n = 8] (I: cyclo([2Nal]G[dY][dNMeOrn]R) / II: cyclo([2Nal]G[dY][dNMeOrn]R); linker I:4-II:4 via Sebacoyl) as the compound, how does the IC50 read?
A: Its IC50 is 2.12 ± 0.9 nM.

Q: For `CN1C(=O)[C@@H](Cc2ccc(O)cc2)NC(=O)CNC(=O)[C@H](Cc2ccc3ccccc3c2)NC(=O)[C@H](CCCNC(=N)N)NC(=O)[C@H]1CCCNC(=O)CCCCCCCCCCCC(=O)NCCC[C@@H]1C(=O)N[C@@H](CCCNC(=N)N)C(=O)N[C@@H](Cc2ccc3ccccc3c2)C(=O)NCC(=O)N[C@H](Cc2ccc(O)cc2)C(=O)N1C` [NMe-D-Orn n = 11], which IC50 is on record?
A: Its IC50 is 11.1 ± 3.4 nM.
